{"source": "patent US5894021A", "about": "“Iontophoretic transdermal drug-delivery interface and skin treatment agent and treatment method using the same” (Kabushiki Kaisya Advance, priority 1994, dated 1999)", "key": {"[1]": {"experiment": "Prevention test of skin adsorption of drug: nonabsorbed calcitonin in solution on excised rat skin (Example 2), HPLC", "type": "in vitro ADME, male hairless rats", "settings": "after one hour, 2 μg/ml calcitonin, 60 min", "description": "The stomach skin of male hairless rats of 13 weeks age were sheared by electric shears, then lightly rubbed and disinfected by absorbent cotton containing an aqueous solution of 70% ethanol. The skin was separated by scissors, then placed on a paper towel moistened with physiological saline with the epidermal side facing up. An acrylic chamber cup (18 mm diameter and 20 mm height) was immersed for 5 minutes in a silicone coating and an aqueous solution of 1% benzalkonium chloride, then was fully rinsed and washed by distilled water. The acrylic chamber cup was adhered to the skin by medicinal adhesive and dried, then filled with 2 ml of an aqueous solution of 1% benzalkonium chloride (Group 2)or distilled water as a control (Group 1) and allowed to stand for 5 minutes. The solution was removed then the cup was fully rinsed and washed by distilled water. As one example of the polypeptide drug, a solution of 2 μg/ml of calcitonin (synthetic salmon calcitonin made by Sigma Co.) in distilled water was prepared. A 2 ml amount each were added to two acrylic chamber cups treated as explained above which were then allowed to stand. Amounts of 100 μl each were sampled after 1, 2, and 6 hours and the amount of nonabsorbed calcitonin in the solution was measured by high pressure liquid chromatography."}, "[2]": {"tested_on": "calcium value in the rat serum", "experiment": "Transdermal iontophoretic administration of calcitonin in rats after skin cleaning (Example 3), serum calcium", "type": "in vivo, male SD rats", "settings": "0.04 μg per sheet, 6 V, 30 kHz, 30% duty, 45 minutes", "description": "Under pentobarbital anesthesia, 7 week old male SD rats had their stomach skin sheared by electric shears and shaved by a shaver, then absorbent cotton containing an aqueous solution of 70% by weight ethanol (Group 3) or absorbent cotton containing an aqueous solution of 70% by weight ethanol plus 0.01% benzalkonium chloride (Group 4) was used to lightly rub and disinfect the areas. Calcitonin dried and held in an amount of 0.04 μg per sheet of drug film (synthetic salmon calcitonin made by Sigma Co.) was dissolved in an aqueous solution at the time of use and used for one rat. The conditions of conductance of power in the iontophoresis were a depolarization type constant voltage high duty pulse of 6 V, 30 kHz, and 30% duty applied for 45 minutes. The blood was sampled after a predetermined time from the jugular vein and was centrifugally separated at 12,000 rpm for 5 minutes. The supernatant was used as the serum sample. The calcium in the blood was measured by the o-cresol phthalein complex method (Calcium C Test Wako made by Wako Pure Chemical Industries, Ltd.)."}, "[3]": {"tested_on": "calcium value in the rat serum", "experiment": "Transdermal iontophoretic administration of calcitonin in rats with benzalkonium chloride-treated or nontreated nylon porous film (Example 1), serum calcium", "type": "in vivo, SD male rats", "settings": "2 IU (0.4 μg) per sheet, 6 V, 30 kHz, 30% duty, 45 minutes", "from_the_text": "These drug holding members, that is, the ion exchange membrane (4), nonwoven fabric (5), and nylon porous member (6) (in this case the holding including at least contact with a drug contact member also acceptable) are coated or impregnated uniformly by an aqueous solution of 0.01% benzalkonium chloride or else immersed in an aqueous solution of the same for treatment, then stripped of water and dried. Of the thus obtained AC-220 membrane, nonwoven fabric, and nylon porous member, the skin contact surface of the nylon porous member has deposited on it a bioactive peptide by a means such as spray coating or impregnation followed by drying for retention. The portion of the nylon porous member (6) coming into contact with the live skin has the drug (11) affixed to it. At the edges of the nylon porous member (6) and under the support (10) are for example disposed an adhesive tape (8) composed of Blenderm® (made by 3M Health Care Ltd.).\nMethod: Under pentobarbital anesthesia, 7 week old SD male rats had their stomach skin sheared by electric shears and shaved by a shaver, then absorbent cotton containing an aqueous solution of 70% by weight ethanol was used to lightly rub and disinfect the area. […] The serum calcium was measured by the o-cresol phthalein complex method (Calcium C Test Wako made by Wako Pure Chemical Industries, Ltd.)."}}}
{"substance": "calcitonin", "values": [{"measurement": "amount of calcitonin in the aqueous solution in terms of the initially prepared concentration", "setting": "[1]; skin washed with 1% benzalkonium chloride (Group 2)", "result": "approximately 60%"}, {"measurement": "amount of calcitonin in the aqueous solution in terms of the initially prepared concentration", "setting": "[1]; skin washed with just distilled water (Group 1)", "result": "approximately 30%"}, {"measurement": "maximum reduction in the calcium value in rat serum", "setting": "[2]; skin cleaned by 70% by weight ethanol containing 0.01% benzalkonium chloride (Group 4)", "result": "about 30%"}, {"measurement": "maximum reduction in the calcium value in the rat serum", "setting": "[2]; skin cleaned by 70% ethanol alone (Group 3)", "result": "approximately 13%"}, {"measurement": "maximum reduction in the calcium value in the rat serum", "setting": "[3]; nylon porous film not coated with surfactant (nontreated group)", "result": "approximately 17%"}, {"measurement": "maximum reduction in the calcium value in the rat serum", "setting": "[3]; nylon porous film treated by benzalkonium chloride (treated group)", "result": 28, "unit": "%"}]}
